We go through three molecules from patent US12054560B2, “Bifunctional molecules recruiting antibodies and targeting cancer cells” (JIANGNAN UNIVERSITY, priority 2017, dated 2024).

The test system of test [1] is HUVEC (high expression of CD13). Kind of test: Flow cytometry, recruitment of anti-DNP antibody on HUVEC cells. It counts as cell-based. The conditions noted are these: 250 nM, anti-DNP antibody 20 μg/mL, FIG. 9. The method, then:
Cell assay implementation: cell culture: commercial cells HUVEC (high expression of CD13) was cultured in DMEM complete medium. All cell culture conditions were 37° C., 5% CO2. Flow cytometry assay: (1) The cells were digested with trypsin, resuspended in flow medium diluted to 1×10^5 cells. 400 μL of cells (40,000 cells) were added to a sterile EP tube. (2) NGR oligopeptide (NGR peptide, amino acid sequence: GGG-cyclo-(CNGRC) (SEQ ID NO:8)) or NGR-DNP were added at a final concentration of 250 nM. In the negative control group, cells were treated with PBS. The cells were added anti-DNP (anti-DNP) antibody at a concentration of 20 μg/mL in all groups, incubate on ice for 1 h. then the cells were washed and incubated with fluorescent secondary antibody for 0.5 h. (3) The cells were thoroughly washed gently with a flow buffer, resuspended, and analyzed by instruments.

The test system of test [2] is HUVEC cells. Kind of test: ADCC assay on HUVEC cells. It counts as cell-based. The settings on record: 250 nM, anti-DNP antibody, PBMC, LDH method, FIG. 9. The method, then:
ADCC assay implementation: (1) HUVEC cells were seeded in 96-well plates at a concentration of 10,000 cells/well. After the cells were fully attached, added with NGR oligopeptide (NGR peptide, amino acid sequence: GGG-cyclo-(CNGRC) (SEQ ID NO:8)) or NGR-DNP compound at a final concentration of 250 nM and immediately added a certain concentration of anti-DNP antibody. (2) After incubation for a period of time, freshly extracted PBMC cells were added at a certain effect target ratio for a certain period of time. (3) The supernatant was removed by centrifugation, and cytotoxicity was measured by the LDH method.

Test [3] concerns HUVEC cells. Kind of test: CDC assay on HUVEC cells. It counts as cell-based. The conditions noted are these: 250 nM, anti-DNP antibody, 10% complement, cck8 method, FIG. 9. The method, then:
CDC assay implementation: (1) HUVEC cells were seeded in 96-well plates at a concentration of 5,000 cells/well. After the cells were fully attached, added with NGR oligopeptide (NGR peptide, amino acid sequence: GGG-cyclo-(CNGRC) (SEQ ID NO:8)) or NGR-DNP compound at a final concentration of 250 nM and added a certain concentration of anti-DNP antibody at the same time. After 2 hours of incubation at 37° C., a final concentration of 10% of the complement solution was added and incubated for 1 hour at 37° C. After the incubation, the cell viability was measured by the cck8 method.

The subject of test [4] is SKBR3 (HER2 positive) cells. Kind of test: Flow cytometry, recruitment of anti-Rha IgG on SKBR3 cells. It counts as cell-based. The settings on record: 250 nM, Alexa 488-conjugated rabbit anti-Rha IgG, FIG. 5. As for the experimental part: SKBR3 (HER2 positive) and MCF7 cells (HER2 negative) were grown in DMEM supplemented with 10% FBS, 1% penicillin-streptomycin. All cells were cultured at 37° C. in a 5% CO2 humidified atmosphere.
(1) Cells were cultured and detached with trypsin-EDTA and then resuspended to 1.0×10^5 cells/mL. Forty thousand of these cells were added into tubes. (2) Nanobody C7b and Rha conjugated C7b were then added to a final concentration of 250 nM, followed which Alexa 488-conjugated rabbit anti-Rha IgG antibodies were added. In the negative control group, cells were treated with PBS instead of nanobody. These cells were incubated on ice for 60 min, (3) washed with flow cytometry buffer and then analyzed using an Accuri C6 flow cytometer.
On the technique in general: In flow cytometry, cells or beads pass a laser one at a time.

A further test has as its target T1, CD13 receptor, P15144.
T1 chain: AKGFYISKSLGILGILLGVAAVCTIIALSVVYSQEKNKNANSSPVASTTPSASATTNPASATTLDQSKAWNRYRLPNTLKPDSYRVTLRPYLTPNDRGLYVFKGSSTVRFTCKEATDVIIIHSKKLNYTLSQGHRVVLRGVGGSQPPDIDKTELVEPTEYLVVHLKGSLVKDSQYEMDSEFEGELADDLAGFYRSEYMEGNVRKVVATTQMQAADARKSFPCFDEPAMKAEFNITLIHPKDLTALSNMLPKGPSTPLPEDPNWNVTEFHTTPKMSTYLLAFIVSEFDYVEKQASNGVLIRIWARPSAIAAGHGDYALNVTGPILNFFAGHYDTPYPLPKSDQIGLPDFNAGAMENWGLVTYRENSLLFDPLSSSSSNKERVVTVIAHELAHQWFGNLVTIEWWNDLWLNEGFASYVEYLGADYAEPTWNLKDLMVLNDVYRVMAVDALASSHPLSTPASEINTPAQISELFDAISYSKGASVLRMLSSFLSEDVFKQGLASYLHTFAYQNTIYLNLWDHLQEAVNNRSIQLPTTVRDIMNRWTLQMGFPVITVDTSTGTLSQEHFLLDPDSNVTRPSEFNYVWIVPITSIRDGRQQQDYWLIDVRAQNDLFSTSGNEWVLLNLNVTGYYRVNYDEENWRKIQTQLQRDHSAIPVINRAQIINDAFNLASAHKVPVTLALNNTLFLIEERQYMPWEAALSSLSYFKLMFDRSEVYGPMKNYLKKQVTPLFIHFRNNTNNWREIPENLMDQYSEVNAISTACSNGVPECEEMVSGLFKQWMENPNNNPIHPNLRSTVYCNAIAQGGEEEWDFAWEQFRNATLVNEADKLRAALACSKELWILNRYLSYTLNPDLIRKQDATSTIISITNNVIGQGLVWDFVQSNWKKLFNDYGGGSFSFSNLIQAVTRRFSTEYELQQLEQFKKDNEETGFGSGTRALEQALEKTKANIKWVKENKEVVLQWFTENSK
Kind of test: cell-based or functional assay.

Bridge positions count the residues as written; N and C are the ends. Ends that are not written are not given here.

As for “NGR-DNP: DNP-TEG-COOH coupled to peptide GGGCNGRC, oxidized with iodine to the cyclic form (GGGCNGRC-OH; disulfide 4-8 (inferred); also: DNP-TEG-COOH coupled to peptide, site not given here)”, the “recruitment of antibodies and targeting of tumor cells” value in test [1] is “can recruit antibodies and target tumor cells”. The “ADCC cell lysis rate” value in the test with HUVEC cells [2] is recorded as “approximately 60%”. In addition, in the test on HUVEC cells [3], the “CDC cell lysis rate” value was “approximately 60%”.

B1: C7b: anti-HER2 nanobody C7b, SEQ ID NO: 2 (related NCBI sequence ID: AFN61318.1) (protein)
VHH: MQVQLVQSGGGLVQAGGSLRLSCAASGRTFSSYAMAWFRQAPGKEREFVAAISWSGANIYVADSVKGRFTISRDNAKDTVYLQMNSLKPEDTAVYYCAVKLGFAPVEERQYDYWGQGTQVTVSSLPETGG
modifications: The HER2-specific nanobody C7b sequence was genetically engineered to contain at its C-terminus a sorting signal for further sortase A-mediated ligation.
Regarding B1, the “fluorescence intensity increase compared to negative control (accumulation of anti-Rha IgGs on cells)” value in test [4] is reported as “no fluorescence intensity increase”.

B2: NGR-DNP (peptide)
peptide: GGGCNGRC
modifications: not checked
In turn, B2 came in with a CDC and ADCC cell lysis rate with CD13 receptor, P15144 of 60%.
